Laboratory results published in PubChem BioAssay AID2765 (Broad Institute, 2010).
The source made the active and inactive calls.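 How the source made its calls: active means half-maximal concentration for the rise in caspase light signal at or below ten times the top tested dose; inconclusive means flat fit between 30% and 70% activity, or unreliable curve fit; inactive means the rest.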

System: MEF A1-2A-BIM cells, caspase 3/7 luminescence, 3 h
Assay: inducers of caspase signal in A1-dependent MEFs – cell-based, luminescence, retest, A1 inhibitor project, dose response (AID 2765)

Row | Compound | EC50
1 | CCOc1ccccc1CNC(=O)Cn1nc(C)c2c(C)n(-c3ccc(C)cc3)nc2c1=O | > 35 µM (inactive)
2 | CS(=O)(=O)c1sc(C#N)c2c1C(=O)CC(c1ccccc1)C2 (stereo not drawn) | > 35 µM (inactive)
3 | COc1cc2cnc(-c3ccccc3)c(-c3cccc(C(F)(F)F)c3)c2cc1OC | > 35 µM (inactive)
4 | Cc1ccc(C(=O)Nc2nnc(C3=COCCO3)o2)cc1C | > 35 µM (inactive)
5 | CSc1ccc(CNC(=O)Cn2nc(C)c3c(C)n(-c4ccc(C)cc4)nc3c2=O)cc1 | > 35 µM (inactive)
6 | O=c1c(O[C@@H]2O[C@H](CO)[C@@H](O)[C@H](O)[C@H]2O)c(-c2ccc(O)cc2)oc2cc(O)cc(O)c12 | > 35 µM (inactive)
7 | O=C(O)COc1ccccc1/C=C1\C(=O)Nc2ccc(Br)cc21 | > 35 µM (inactive)
8 | CCCCNC(=O)c1ccc(Cn2c(=S)[nH]c3c([nH]c4ccc(OC)cc43)c2=O)cc1 | 5.24 µM
9 | Cc1ccc2[nH]c3c(c2c1)CCCC3NC(=O)CCl (stereo not drawn) | > 35 µM (inactive)
10 | CCC(Sc1nc2cc3c(cc2c(=O)n1Cc1ccco1)OCO3)C(=O)Nc1cccc(OC)c1 (stereo not drawn) | > 35 µM (inactive)
11 | COCCNC(=O)C(c1ccco1)N(C(=O)Cn1nnc2ccccc21)c1ccc(C)cc1C (stereo not drawn) | > 35 µM (inactive)
12 | O=C(COc1ccc(Cl)cc1)NCc1nnc(SCC(=O)Nc2ccccc2F)o1 | > 35 µM (inactive)
13 | Cc1cc(C)c(C(=O)COC(=O)C2CCN(c3ccc(C(F)(F)F)cn3)CC2)cc1C | > 35 µM (inactive)
14 | Cc1cc(-c2onc(C)c2C(=O)Nc2ccc(C(F)(F)F)cc2)no1 | > 35 µM (inactive)
15 | O=C(O)COc1ccccc1C=NNc1ccc([N+](=O)[O-])cc1S(=O)(=O)Nc1ccc(Cl)cc1 | > 35 µM (inactive)
16 | Cc1sc(NC(=O)CSC2=NCCS2)nc1-c1ccccc1 | > 35 µM (inactive)
17 | Nc1nonc1-c1nc2ccccc2n1CC(=O)NC1CCCC1 | > 35 µM (inactive)
18 | O=C(NCc1cccs1)C(=O)NCC1OCCCN1S(=O)(=O)c1ccccc1 (stereo not drawn) | > 35 µM (inactive)
19 | CCOc1ccccc1/C=C/c1nc2ccccc2[nH]c1=O | > 35 µM (inactive)
20 | O=C(O)c1cccc(CSc2nc(-c3ccc(Cl)cc3)cc(C(F)(F)F)n2)c1 | > 35 µM (inactive)
21 | COc1cc(OC)cc(C(=O)N[C@H](C(=O)OCC(=O)Nc2ccc(C)cc2C)C(C)C)c1 | > 35 µM (inactive)
22 | C=CCOc1c(Br)cc(CNc2ccc3[nH]c(=O)[nH]c3c2)cc1OCC | > 35 µM (inactive)
23 | CCOc1nc(NCCO)nc(NCCC2=CCCCC2)n1 | > 35 µM (inactive)
24 | COc1ccc(CCNC(=O)C2=COCCO2)cc1 | > 35 µM (inactive)

Row | Compound | EC50
25 | CCOc1ccccc1NC(=O)c1nc(S(=O)(=O)Cc2cccc(C)c2)ncc1Cl | > 35 µM (inactive)
26 | COc1ccc(S(=O)(=O)N2CCC(C(=O)N[C@@H](C)C(=O)NCc3ccncc3)CC2)cc1 | > 35 µM (inactive)
27 | COc1ccc(-c2nc(NC(=O)c3n[nH]c(=O)c4ccccc34)sc2C)cc1 | > 35 µM (inactive)
28 | Cc1c(O)c(=O)ccn1Cc1ccccc1 | > 35 µM (inactive)
29 | O=[N+]([O-])c1ccc(S(=O)(=O)N/N=C/c2ccsc2)cc1 | > 35 µM (inactive)
30 | Cc1[nH]c(=S)c(C#N)c(C)c1Cc1ccc(Cl)cc1Cl | > 35 µM (inactive)
31 | COc1ccc(NC(=O)CN(C)C(=O)/C=C/c2ccc(S(=O)(=O)N3CCCCCC3)cc2)cc1 | > 35 µM (inactive)
32 | CCOC(=O)Nc1nc(-c2ccccc2)c(C(=O)c2ccccc2)s1 | > 35 µM (inactive)
33 | COc1cc(NC(=O)c2cccs2)ccc1NC(=O)c1cc2ccccc2o1 | > 35 µM (inactive)
34 | O=C1C(=O)N(Cc2ccco2)C(c2cccs2)/C1=C(\O)c1cccc([N+](=O)[O-])c1 (stereo not drawn) | > 35 µM (inactive)
35 | CCOCCCNC(=O)C1(O)c2cc(Br)ccc2NC(=O)N1c1ccc(CC)cc1 (stereo not drawn) | > 35 µM (inactive)
36 | CC(C)c1nnc(NC(=O)COC(=O)/C=C/c2ccc([N+](=O)[O-])cc2)s1 | > 35 µM (inactive)
37 | COc1ccc(S(=O)(=O)Nc2c(NC3CCCCC3)c3ccccc3oc2=O)cc1OC | > 35 µM (inactive)
38 | Cc1ccccc1N=C1NC(=O)C(CO)(CO)S1 | > 35 µM (inactive)
39 | O=C(NCCN1CCOCC1)c1cc(Cl)ccc1Cl | > 35 µM (inactive)
40 | COc1ccccc1CCNC(C)CCc1ccc(O)cc1 (stereo not drawn) | > 35 µM (inactive)
41 | CCCCc1ccc(-c2csc(/C(C#N)=C\c3ccc(C)o3)n2)cc1 | > 35 µM (inactive)
42 | CCn1c(C)[n+](CCOC(C)=O)c2cc(Cl)c(Cl)cc21 | > 35 µM (inactive)
43 | CCSc1ccc(-c2nn(-c3ccccc3)cc2/C=C(/C#N)C(=O)NC)cc1 | > 35 µM (inactive)
44 | COc1ccc(-c2oc(=O)c3cc(OC)c(OC)cc3c2/C=C/c2cccc([N+](=O)[O-])c2)cc1 | > 35 µM (inactive)
45 | COc1ccc(CNCc2ccc([N+](=O)[O-])cc2)cc1OC | > 35 µM (inactive)
46 | O=C(Nc1ccc2oc(-c3ccccc3)nc2c1)c1ccccc1F | > 35 µM (inactive)
47 | COc1ccccc1OCC(=O)NNC(=O)c1ccc(F)c(S(=O)(=O)N2CCOCC2)c1 | > 35 µM (inactive)
48 | C[C@H](CO)N1C[C@H](C)[C@@H](CN(C)C(=O)NC2CCCCC2)Oc2c(NS(=O)(=O)c3cn(C)cn3)cccc2C1=O | > 35 µM (inactive)

Row | Compound | EC50
49 | CCOCCCNC(=O)c1ccc(N2CC3CC(C2)c2cccc(=O)n2C3)c(NC(=O)Nc2cccc(OC)c2)c1 (stereo not drawn) | > 35 µM (inactive)
50 | O=C(O)c1cn(-c2ccccc2)c(=O)c2ccccc12 | > 35 µM (inactive)
51 | COc1ccc(S(=O)(=O)Nc2ccc(NC(C)=O)cc2)cc1 | > 35 µM (inactive)
52 | CCOc1ccccc1C(=O)N[C@H](C(=O)OCc1cc([N+](=O)[O-])cc2c1OCOC2)C(C)C | > 35 µM (inactive)
53 | COc1ccccc1C(=O)N1CCN(Cc2ccc3c(c2)OCO3)CC1 | > 35 µM (inactive)
54 | NS(=O)(=O)c1ccc(CCNC(=O)CN2CCN(S(=O)(=O)c3ccccc3F)CC2)cc1 | > 35 µM (inactive)
55 | O=C(Nc1nnc(C2CCCCC2)s1)C1CC(=O)N(c2ccc(F)cc2)C1 (stereo not drawn) | > 35 µM (inactive)
56 | CCOc1ccc(OCc2ccc(C(=O)NN=Cc3ccc[nH]3)cc2)cc1 | > 35 µM (inactive)
57 | C=CCn1c(SCC(=O)NC23CC4CC(CC(C4)C2)C3)nc(O)cc1=O | > 35 µM (inactive)
58 | CCN(C(=O)c1ccc2c(=O)n3c(nc2c1)CCCCC3)c1ccccc1C | > 35 µM (inactive)
59 | COc1cccc(C(=O)NCC(=O)N/N=C/c2ccc(OC(=O)c3cccs3)c(OC)c2)c1 | > 35 µM (inactive)
60 | Cc1[nH]nc2nc(SCC(=O)NCCC3=CCCCC3)n(-c3ccc(Br)cc3)c(=N)c12 | 13.9 µM
61 | CC1CCN(c2ccc3nnc(CCC(=O)NCc4ccco4)n3n2)CC1 | > 35 µM (inactive)
62 | C#CCOCCOCCOCCNc1nc(N2CCN(C(=O)[C@H](CCCCN)n3cc(CCCC)nn3)CC2)nc(N2CCN(C(=O)[C@H](CCCCN)n3cc(CCC(=O)O)nn3)CC2)n1 | > 35 µM (inactive)
63 | O=C(Nc1ccc2oc(-c3cccc(F)c3)nc2c1)c1ccccc1F | > 35 µM (inactive)
64 | CCN(CC)c1ccc2c(c1)oc(=O)c1c(Cl)cc(=O)oc12 | > 35 µM (inactive)
65 | CSc1ccccc1NC(=O)c1ccc(N2CC3CC(C2)c2cccc(=O)n2C3)c(NC(=O)c2cccnc2)c1 (stereo not drawn) | > 35 µM (inactive)
66 | CCCCn1c(=O)[nH]c(=O)c2c1nc(Cn1ncc(Cl)c(Cl)c1=O)n2CCC | > 35 µM (inactive)
67 | CN(C)c1ccc(S(=O)(=O)N(C)C)cc1[N+](=O)[O-] | > 35 µM (inactive)
68 | CN(C)CCN(C(=O)/C=C/c1cccs1)c1nc2c(F)cc(F)cc2s1 | 36.1 µM
69 | Clc1ccccc1CN(Cc1ccccc1)c1ncnc2nc[nH]c12 | > 35 µM (inactive)
70 | O=C(N/N=C/c1ccco1)c1cc(-c2cccc(Br)c2)nc2ccccc12 | > 35 µM (inactive)
71 | C[C@@]12C(=O)OC(=O)[C@]1(C)C1CCC2O1 | > 35 µM (inactive)
72 | CC1CC(C)CN(C(=O)c2ccc(-c3ccc([N+](=O)[O-])cc3)o2)C1 (stereo not drawn) | > 35 µM (inactive)

Row | Compound | EC50
73 | S=C(NCCc1ccccc1)NC1CCCCCC1 | > 35 µM (inactive)
74 | CCOc1ccccc1NC(=O)CN1C(=O)CSC(C)C1=O (stereo not drawn) | > 35 µM (inactive)
75 | Cc1ccc2c(c1)C(=O)C(=O)N2Cc1ccc(Br)cc1 | > 35 µM (inactive)
76 | COc1ccc(-c2ccc3c(c2)S(=O)(=O)c2cccc(C(=O)NCc4cccc(OC(F)(F)F)c4)c2C3=O)cc1OC | 20.4 µM
77 | Cc1cc(=O)[nH]c(SCC(=O)Nc2ccc(Br)cc2)c1C#N | > 35 µM (inactive)
78 | CC(NC(=O)c1cc(F)c(F)c(F)c1F)c1ccc(-n2ccnc2)cc1 (stereo not drawn) | > 35 µM (inactive)
79 | COc1ccc(C2C(C(=O)c3ccc(C)o3)=C(O)C(=O)N2Cc2cccnc2)cc1OC (stereo not drawn) | > 35 µM (inactive)
80 | CCOc1ccccc1NC(=O)Nc1cc(OC)ccc1OC | > 35 µM (inactive)
81 | Cc1ccc(N2CCN(C(=S)Nc3ccccc3C)CC2)cc1 | > 35 µM (inactive)
82 | CCOc1ccc(N2CC(C(=O)NNC(=O)c3ccc(Br)cc3)CC2=O)cc1 (stereo not drawn) | > 35 µM (inactive)
83 | COCc1cc(C)nc(SCC(=O)Nc2ccc3c(c2)OCO3)c1C#N | > 35 µM (inactive)
84 | Cc1ccc(NC(=O)CN(C)S(=O)(=O)c2cnc[nH]2)c(C)c1 | > 35 µM (inactive)
85 | Cc1ccc(C#N)c(SCC(=O)Nc2nccs2)n1 | > 35 µM (inactive)
86 | O=C(CN1C(=O)c2ccccc2S1(=O)=O)NCCc1ccccc1 | > 35 µM (inactive)
87 | COc1ccc(/C=C2\SC(=O)N(CCC(=O)N(C)C3CCS(=O)(=O)C3)C2=O)cc1 (stereo not drawn) | > 35 µM (inactive)
88 | COc1ccc2[nH]c(=O)c(CN(CC3CCCO3)C(=O)Nc3ccccc3)cc2c1 (stereo not drawn) | > 35 µM (inactive)
89 | Cc1ccc(N(Cc2cc(=O)[nH]c3ccccc23)C(=O)CCl)cc1 | > 35 µM (inactive)
90 | COc1cc(NC(=O)c2ccc(C)cc2C)ccc1NC(=O)c1cc2ccccc2o1 | 26.7 µM
91 | CN(C)S(=O)(=O)c1cccc(C(=O)Nc2n[nH]c(C(F)(F)F)n2)c1 | > 35 µM (inactive)
92 | O=C(c1ccco1)N1CCN(C(=O)c2cc(-c3ccccn3)nc3ccc(Cl)cc23)CC1 | > 35 µM (inactive)
93 | O=C(NC1CCCCC1)c1cccc2c1C(=O)c1ccc(-c3ccc(OC(F)(F)F)cc3)cc1S2(=O)=O | 27.5 µM
